Data set [1] has as its target Tyrosine-protein kinase Fyn (Homo sapiens, UniProt P06241). The experiment in a line: biochemical. It counts as cell-based, Insect cells.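 Note: enzymatic inhibition of Fyn kinase activity measured with Poly(Glu:Tyr) as the phosphorylation substrate; in other assays of this panel Not Active means under 50% inhibition at 10 µM.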
The target of the next data set is T1, Calcitonin receptor (Homo sapiens, UniProt P30988). Note: in other assays of this panel Not Active means under 50% inhibition at 10 µM.
T1 sequence (P30988 whole entry): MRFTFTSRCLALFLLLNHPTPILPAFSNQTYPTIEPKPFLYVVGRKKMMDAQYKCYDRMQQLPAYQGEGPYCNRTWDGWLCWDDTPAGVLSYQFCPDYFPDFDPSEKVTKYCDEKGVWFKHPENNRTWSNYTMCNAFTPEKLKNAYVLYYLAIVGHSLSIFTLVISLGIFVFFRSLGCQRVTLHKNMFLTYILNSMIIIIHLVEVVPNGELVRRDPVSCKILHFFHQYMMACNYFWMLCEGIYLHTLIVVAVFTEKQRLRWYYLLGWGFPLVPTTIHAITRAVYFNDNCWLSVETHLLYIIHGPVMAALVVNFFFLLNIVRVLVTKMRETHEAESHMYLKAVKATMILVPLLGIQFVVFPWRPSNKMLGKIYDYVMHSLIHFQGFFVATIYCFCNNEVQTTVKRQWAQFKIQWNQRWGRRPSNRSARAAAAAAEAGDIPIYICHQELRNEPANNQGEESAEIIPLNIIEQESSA
Format: cell membranes, Membrane. The following applies: t47d.

The target of data set [2] is T2, Receptor-type tyrosine-protein phosphatase C (Homo sapiens, UniProt P08575).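 Note: inhibition of CD45 enzyme activity measured using DiFMUP as substrate; in other assays of this panel Not Active means under 50% inhibition at 10 µM.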
T2 sequence (P08575 whole entry): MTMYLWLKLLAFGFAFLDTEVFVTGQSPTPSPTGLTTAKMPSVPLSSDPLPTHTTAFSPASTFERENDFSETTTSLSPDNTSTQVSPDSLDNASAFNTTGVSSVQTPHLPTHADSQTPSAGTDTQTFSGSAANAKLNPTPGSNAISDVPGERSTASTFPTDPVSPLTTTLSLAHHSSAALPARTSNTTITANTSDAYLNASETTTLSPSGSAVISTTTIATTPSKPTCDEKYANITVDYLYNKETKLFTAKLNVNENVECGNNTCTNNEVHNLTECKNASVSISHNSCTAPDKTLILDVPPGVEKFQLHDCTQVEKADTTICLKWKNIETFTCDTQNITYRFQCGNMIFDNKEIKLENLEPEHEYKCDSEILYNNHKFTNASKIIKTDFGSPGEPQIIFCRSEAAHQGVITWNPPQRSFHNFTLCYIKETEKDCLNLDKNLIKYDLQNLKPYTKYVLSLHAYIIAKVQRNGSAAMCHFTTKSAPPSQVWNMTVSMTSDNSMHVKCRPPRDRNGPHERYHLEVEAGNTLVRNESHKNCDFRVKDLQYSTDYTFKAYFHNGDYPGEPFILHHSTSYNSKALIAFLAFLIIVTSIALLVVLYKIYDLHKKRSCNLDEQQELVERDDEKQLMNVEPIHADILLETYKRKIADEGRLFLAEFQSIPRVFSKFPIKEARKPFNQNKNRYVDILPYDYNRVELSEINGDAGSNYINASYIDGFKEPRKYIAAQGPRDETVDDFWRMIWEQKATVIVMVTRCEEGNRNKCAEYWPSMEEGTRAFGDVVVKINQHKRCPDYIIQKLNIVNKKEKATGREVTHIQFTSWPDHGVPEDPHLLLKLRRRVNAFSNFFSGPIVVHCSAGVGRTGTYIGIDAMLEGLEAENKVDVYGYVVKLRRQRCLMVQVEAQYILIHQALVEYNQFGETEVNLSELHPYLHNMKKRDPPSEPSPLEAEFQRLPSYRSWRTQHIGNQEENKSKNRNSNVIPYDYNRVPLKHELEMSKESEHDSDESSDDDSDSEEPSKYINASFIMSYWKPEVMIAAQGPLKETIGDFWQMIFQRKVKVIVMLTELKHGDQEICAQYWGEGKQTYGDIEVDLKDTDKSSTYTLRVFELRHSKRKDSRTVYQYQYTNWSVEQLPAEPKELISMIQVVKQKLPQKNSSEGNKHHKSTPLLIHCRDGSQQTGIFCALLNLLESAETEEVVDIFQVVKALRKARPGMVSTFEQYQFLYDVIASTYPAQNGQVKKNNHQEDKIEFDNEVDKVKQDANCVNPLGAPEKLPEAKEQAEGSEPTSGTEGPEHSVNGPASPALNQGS
Further details: species or system Escherichia coli.

Data set [3] deals with Protein kinase C alpha type (Homo sapiens, UniProt P17252). Format: cell-based. The following applies: sf9.
Data set [4] in a line: DRUGMATRIX: GABAA, Chloride Channel, TBOB radioligand binding (ligand: [3H] TBOB). Format: cell membranes, Rattus norvegicus, Wistar, Cerebral cortex, Membrane. The following applies: Not Active = under 50% inhibition at 10 µM.
Data set [5] deals with Sigma non-opioid intracellular receptor 1 (Homo sapiens, UniProt Q99720). The experiment in a line: DRUGMATRIX: Sigma1 radioligand binding (ligand: [3H] Haloperidol). It counts as cell membranes, Jurkat, Membrane. The conditions noted are these: Not Active = under 50% inhibition at 10 µM; for Ki: read-out: Ki.
Sigma non-opioid intracellular receptor 1, sequence (Q99720 whole entry): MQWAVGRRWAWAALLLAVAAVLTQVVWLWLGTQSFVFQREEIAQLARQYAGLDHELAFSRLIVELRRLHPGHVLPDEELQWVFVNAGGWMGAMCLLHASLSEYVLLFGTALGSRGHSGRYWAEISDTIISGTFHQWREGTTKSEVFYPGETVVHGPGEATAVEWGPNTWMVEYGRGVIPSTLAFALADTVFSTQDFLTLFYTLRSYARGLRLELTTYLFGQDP
A further data set deals with Cytochrome P450 2E1 (Homo sapiens, UniProt P05181). The following applies: bti-tn-5b1-4.
Cytochrome P450 2E1, sequence (P05181 whole entry): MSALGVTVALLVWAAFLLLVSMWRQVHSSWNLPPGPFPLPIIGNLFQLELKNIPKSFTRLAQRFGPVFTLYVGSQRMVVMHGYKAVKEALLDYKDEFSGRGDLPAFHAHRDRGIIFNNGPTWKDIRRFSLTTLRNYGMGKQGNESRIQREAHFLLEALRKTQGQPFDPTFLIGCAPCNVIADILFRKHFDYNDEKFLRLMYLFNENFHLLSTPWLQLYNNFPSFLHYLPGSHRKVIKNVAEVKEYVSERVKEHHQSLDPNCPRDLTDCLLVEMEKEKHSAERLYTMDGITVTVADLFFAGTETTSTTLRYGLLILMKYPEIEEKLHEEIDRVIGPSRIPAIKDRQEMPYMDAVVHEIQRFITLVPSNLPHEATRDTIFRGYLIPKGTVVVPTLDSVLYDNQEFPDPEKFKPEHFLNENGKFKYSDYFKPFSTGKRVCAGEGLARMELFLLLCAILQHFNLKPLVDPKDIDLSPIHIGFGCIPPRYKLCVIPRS

Structures are written as SMILES.

Tyrosine-protein kinase Fyn, sequence (P06241 whole entry): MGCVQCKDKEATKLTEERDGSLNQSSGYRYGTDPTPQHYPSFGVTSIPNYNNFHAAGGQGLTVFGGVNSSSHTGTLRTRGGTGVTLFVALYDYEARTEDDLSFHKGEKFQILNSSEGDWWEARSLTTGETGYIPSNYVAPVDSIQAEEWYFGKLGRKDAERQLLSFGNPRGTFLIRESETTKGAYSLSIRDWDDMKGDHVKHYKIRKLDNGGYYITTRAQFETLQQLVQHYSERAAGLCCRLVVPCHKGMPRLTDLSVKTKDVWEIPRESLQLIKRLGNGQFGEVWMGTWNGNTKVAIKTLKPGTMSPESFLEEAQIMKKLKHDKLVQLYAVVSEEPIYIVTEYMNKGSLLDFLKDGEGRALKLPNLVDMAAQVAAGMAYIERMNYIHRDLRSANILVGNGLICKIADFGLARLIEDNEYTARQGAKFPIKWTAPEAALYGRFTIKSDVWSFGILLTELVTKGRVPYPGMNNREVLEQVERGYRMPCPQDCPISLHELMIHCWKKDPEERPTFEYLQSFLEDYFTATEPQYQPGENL

As to `COc1ccc(CCN(C)CCCC(C#N)(c2ccc(OC)c(OC)c2)C(C)C)cc1OC` (configuration not stated), the concentration for half-maximal inhibition (IC50) entry (in data set [1] (insect cells); at Calcitonin receptor; in data set [2]; in data set [3]; in data set [4]; in data set [5] (jurkat)) was “Not Active” in each case. Further, the half-maximal inhibitory concentration (IC50) entry against Cytochrome P450 2E1 is “Not Active”. Also, the inhibition constant Ki result (in data set [4]; at Cytochrome P450 2E1) was “Not Active” throughout.
In the case of `CC(C)Cc1ccc([C@@H](C)C(=O)O)cc1` [(R)-IBUPROPHEN], the half-maximal inhibitory concentration (IC50) result (in data set [1] (insect cells); at Calcitonin receptor; in data set [2]; in data set [3]; in data set [4]; in data set [5] (jurkat)) was “Not Active” each time. The half-maximal inhibitory concentration (IC50) entry at Cytochrome P450 2E1 is on record as “Not Active”. Also, the Ki entry (in data set [4]; on Cytochrome P450 2E1) was “Not Active” throughout.
Turning to `CC(C)NCC(O)c1ccc(O)c(O)c1` (configuration not stated) [ISOPROTERENOL], the IC50 entry (in data set [1] (insect cells); at Calcitonin receptor; in data set [2]; in data set [3]; in data set [4]; in data set [5] (jurkat)) was “Not Active” in each case. Also, the IC50 entry on Cytochrome P450 2E1 is recorded as “Not Active”. For the same compound, the Ki entry (in data set [4]; at Cytochrome P450 2E1) was “Not Active” throughout.
For the compound `NC(=O)N1C(=O)/C(=C(\O)c2cccs2)c2cc(Cl)ccc21` [TENIDAP], the IC50 result (in data set [1] (insect cells); on Calcitonin receptor; in data set [2]; in data set [3]; in data set [4]; in data set [5] (jurkat)) was “Not Active” each time. The half-maximal inhibitory concentration (IC50) entry on Cytochrome P450 2E1 is reported as “Not Active”. Further, the Ki entry (in data set [4]; on Cytochrome P450 2E1) was “Not Active” in each case.
Consider `NC1CCN(c2nc3c(cc2F)c(=O)c(C(=O)O)cn3-c2ccc(F)cc2F)C1` (configuration not stated) [TOSUFLOXACIN], for which the 50% inhibitory concentration (IC50) result (in data set [1] (insect cells); at Calcitonin receptor; in data set [2]; in data set [3]; in data set [4]; in data set [5] (jurkat)) was “Not Active” throughout. In addition, at Cytochrome P450 2E1, the IC50 entry was “Not Active”. In addition, the inhibition constant Ki result (in data set [4]; on Cytochrome P450 2E1) was “Not Active” in each case.
In the case of `N#Cc1ccc(C(c2ccc(C#N)cc2)n2cncn2)cc1` [LETROZOLE], the IC50 result (in data set [1] (insect cells); on Calcitonin receptor; in data set [2]; in data set [3]; in data set [4]; in data set [5] (jurkat)) was “Not Active” each time. Moreover, the half-maximal inhibitory concentration (IC50) result against Cytochrome P450 2E1 is listed as “Not Active”. Also, the inhibition constant Ki result (in data set [4]; at Cytochrome P450 2E1) was “Not Active” each time.
For the compound `O=C(Nc1ccc(Br)cc1)c1cc(Br)cc(Br)c1O` [TRIBROMSALAN], the 50% inhibitory concentration (IC50) entry (in data set [1] (insect cells); on Calcitonin receptor; in data set [2]; in data set [3]; in data set [4]; in data set [5] (jurkat)) was “Not Active” each time. For the same compound, the half-maximal inhibitory concentration (IC50) result against Cytochrome P450 2E1 is “Not Active”. For the same compound, the Ki entry (in data set [4]; on Cytochrome P450 2E1) was “Not Active” in each case.
For `O=C1Nc2ccc(Cl)cc2C(c2ccccc2Cl)=NC1O` (configuration not stated) [LORAZEPAM], the half-inhibitory concentration (IC50) entry (in data set [1] (insect cells); at Calcitonin receptor; in data set [2]; in data set [3]; in data set [4]; in data set [5] (jurkat)) was “Not Active” each time. In addition, the IC50 entry on Cytochrome P450 2E1 is “Not Active”. Also, the Ki result (in data set [4]; at Cytochrome P450 2E1) was “Not Active” in each case.
Regarding `CC(C)Oc1ccc2c(=O)c(-c3ccccc3)coc2c1` [IPRIFLAVONE], the half-inhibitory concentration (IC50) result (in data set [1] (insect cells); on Calcitonin receptor; in data set [2]; in data set [3]; in data set [4]; in data set [5] (jurkat)) was “Not Active” each time. For the same compound, at Cytochrome P450 2E1, the IC50 entry is on record as “Not Active”. Also, the inhibition constant Ki entry (in data set [4]; at Cytochrome P450 2E1) was “Not Active” throughout.
For the compound `CNC1(c2ccccc2Cl)CCCCC1=O` (configuration not stated) [KETAMINE], the half-maximal inhibitory concentration (IC50) result (in data set [1] (insect cells); at Calcitonin receptor; in data set [2]; in data set [3]; in data set [4]; in data set [5] (jurkat)) was “Not Active” in each case. Further, at Cytochrome P450 2E1, the IC50 result is listed as “Not Active”. Further, the inhibition constant (Ki) result (in data set [4]; at Cytochrome P450 2E1) was “Not Active” throughout.
Turning to `CCN(CC)CCOc1ccc(/C(=C(/Cl)c2ccccc2)c2ccccc2)cc1` [ENCLOMIPHENE], the IC50 in data set [1] (read-out: IC50) is 2510 nM; on Calcitonin receptor, “Not Active”; in data set [2], “Not Active”; in data set [3] it was “Not Active”; on Cytochrome P450 2E1, “Not Active”. Moreover, at Cytochrome P450 2E1, the Ki result was “Not Active”.
On to `CN[C@H]1CC[C@@H](c2ccc(Cl)c(Cl)c2)c2ccccc21` [SERTRALINE], for which the 50% inhibitory concentration (IC50) result (in data set [1] (insect cells); at Calcitonin receptor; in data set [2]; in data set [3]; against Cytochrome P450 2E1) was “Not Active” each time. For the same compound, the Ki result at Cytochrome P450 2E1 is reported as “Not Active”.
Consider `CN(C)CCOC(c1ccccc1)c1ccccc1` [DIPHENHYDRAMINE], for which the concentration for half-maximal inhibition (IC50) result (in data set [1] (insect cells); at Calcitonin receptor; in data set [2]; in data set [3]; in data set [5] (jurkat)) was “Not Active” throughout.
As to `Cc1c(C)c2c(c(C)c1O)CCC(C)(CN1CCN(c3cc(N4CCCC4)nc(N4CCCC4)n3)CC1)O2` (configuration not stated), the half-maximal inhibitory concentration (IC50) is 1650 nM in data set [1] (read-out: IC50); “Not Active” at Calcitonin receptor; “Not Active” in data set [2]; “Not Active” in data set [3]; “Not Active” in data set [4]; “Not Active” in data set [5] (jurkat). Moreover, in data set [4], the Ki result was “Not Active”.
Take `Fc1ccc(C(c2ccc(F)cc2)N2CCN(C/C=C/c3ccccc3)CC2)cc1` [FLUNARIZINE]: the IC50 entry is “Not Active” in data set [1] (insect cells); “Not Active” at Calcitonin receptor; “Not Active” in data set [2]; “Not Active” in data set [3]; 25 nM in data set [5] (read-out: IC50); “Not Active” against Cytochrome P450 2E1. The results for the Ki (in data set [5]; at Cytochrome P450 2E1) were 10 nM and “Not Active”, respectively.
On to `CNCCC(Oc1ccc(C(F)(F)F)cc1)c1ccccc1` (configuration not stated) [FLUOXETINE], for which the IC50 entry (in data set [1] (insect cells); on Calcitonin receptor; in data set [2]; in data set [3]; against Cytochrome P450 2E1) was “Not Active” each time. Moreover, on Cytochrome P450 2E1, the inhibition constant (Ki) entry is “Not Active”.
As to `Cc1ccc(NC(=O)c2ccc(CN3CCN(C)CC3)cc2)cc1Nc1nccc(-c2cccnc2)n1` [IMATINIB], the IC50 entry (on Calcitonin receptor; in data set [2]; in data set [3]; in data set [5] (jurkat); on Cytochrome P450 2E1) was “Not Active” in each case. The inhibition constant Ki result at Cytochrome P450 2E1 is on record as “Not Active”.
Regarding `Clc1ccc(COC(Cn2ccnc2)c2ccc(Cl)cc2Cl)cc1` (configuration not stated) [ECONAZOLE], the IC50 in data set [1] (read-out: IC50) was 12100 nM; on Calcitonin receptor it was “Not Active”; in data set [2] it was “Not Active”; in data set [3], “Not Active”; in data set [5] (read-out: IC50), 21100 nM; on Cytochrome P450 2E1 it was “Not Active”. Further, the inhibitory constant (Ki) was 8870 nM in data set [5] and “Not Active” at Cytochrome P450 2E1.

A word on the IC50: it is the point on the concentration scale where inhibition reaches its midpoint. As a reminder, the Ki is the dissociation constant of the complex between target and ligand, obtained from inhibition or displacement.

These data come from ChEMBL document CHEMBL1909046, “DrugMatrix in vitro pharmacology data”.
